Two compounds from patent US20120128711A1, “ANTI-INFLAMMATORY APPROACH TO PREVENTION AND SUPPRESSION OF POST-TRAUMATIC STRESS DISORDER, TRAUMATIC BRAIN INJURY, DEPRESSION AND ASSOCIATED DISEASE STATES” (TOTAL NUTRACEUTICAL SOLUTIONS, INC., priority 2009, published 2012) can be followed below.

The subject of experiment [1] is Alzheimer's disease (AD) model in Drosophila. The experiment is described as follows: Survival of Alzheimer's disease (AD) model flies (UAS-hAPP;408-GAL4). The format is in vivo. Conditions: mushroom or turmeric powder 1% w/w, Vitamin D2/D3 0.75% w/w in yeast paste, 25 degrees C. The text has this:
Type of Model (with specific Drosophila model of neurodegeneration, with references). The targeted over/ectopic expression of APP in the brain using a UAS promoter driven APP transgene, induced by a specific GAL4 trans-driver in the brain of a Drosophila model system, was used for this Example. Below is a reference for such over-expression of APP in the Drosophila model system and the combination gives a fully penetrant AD with limited life-span.
β-Amyloid peptides and amyloid precursor protein (APP) play a deterministic role in Alzheimer's disease (AD). […]
We determined the extension of life span in the mutant strain for each test compound. […]
A series of experiments were run according to the methods earlier reported on Paraquat induced oxidative stress and Drosophila Alzheimer's disease flies. […] We determined the extension of life span in the mutant strain for each test compound as detailed below. […]
In the meantime, yeast paste containing required concentration of compound was prepared. […] Required quantity of both yeast and compound was weighed and finely ground in a pestle and mortar. The finely ground powder was transferred to a small beaker and appropriate quantity of water was added and mixed very well to make a homogeneous paste. […]

The test system of experiment [2] is Drosophila melanogaster under Paraquat-induced oxidative stress. The experiment is described as follows: Survival of Drosophila melanogaster under Paraquat-induced oxidative stress. The format is in vivo. Conditions: 10 mM Paraquat. As for the experimental part:
The effect of Agaricus Blazei without enrichment, with Vitamin D2 enrichment, pure Vitamin D2 and control (vehicle for the delivery) on the survival rate of Drosophila melanogaster under Paraquat-induced oxidative stress condition was tested. The study focused on the control of Paraquat induced oxidative stress/biologic death. Paraquat is a very potent oxidative stress inducing chemical and causes death in animals and plants by the toxicity of released free radicals. Paraquat (10 mM concentration) (Sigma Aldrich) was used to chemically induce oxidative stress. Paraquat is the trade name for N,N′-dimethyl-4,4′-bipyridinium dichloride, a widely used herbicide. Paraquat, a viologen, is quick-acting and non-selective, killing green plant tissue on contact. It is also toxic to humans when swallowed. This is the most standard chemical used in experimental induction of oxidative stress using the Drosophila model system. It catalyzes the formation of reactive oxygen species (ROS). Paraquat will undergo redox cycling in vivo, gets reduced by an electron donor such NADPH, before being oxidized by an electron receptor such as dioxygen to produce superoxide, a major ROS.
The following materials and methods were utilized. Vials containing 10 mM Paraquat (from Sigma Aldrich) in 5 ml of 1.2% Low melting point Agarose medium were prepared. A strip of half moist filter paper was inserted in the medium (with the wet end in). Yeast paste containing 1% concentration (w/w) of the various test materials (see above) mixed to homogeneity was prepared. Yeast paste without drug was used as control. Uniform aliquot (˜300 mg) of yeast paste with or without the test material) was applied to vials in such a way that yeast paste was on the glass surface and covered the dry end (top) of the filter paper strip. Freshly enclosed wild type isogenized Canton-S males and females were collected and starved on 1% agar medium for 5-6 hours. Four males and females were transferred to the vial containing 10 mM paraquat in LMP agarose medium and yeast paste with +/− test material (8 flies per vial). 6 vials were used per experiment. Vials with flies were placed horizontally in a tray. The experiment was conducted at 25 degrees C. temperature. Flies were transferred once in 2 days and the number of flies surviving at each transfer was recorded.

“Also recorded” adds a separate entry of the source.

With `C=C1CC[C@H](O)C/C1=C/C=C1\CCC[C@]2(C)[C@@H]([C@H](C)/C=C/[C@H](C)C(C)C)CC[C@@H]12` [pure Vitamin D2, ergocalciferol], the “effect on survival of AD flies” value in experiment [1] is on record as “no such effect”. Further, the entries for the “effect on survival under Paraquat-induced oxidative stress (words)” value in experiment [2] and in experiment [2] (listed as Vitamin D2) were “no effect on survival” and “deleterious effect on the survival; also recorded: no beneficial effect”, respectively. Besides, in experiment [2] (1% w/w test material in yeast paste, period of 10 days, 25 degrees C), the “survivability under Paraquat-induced oxidative stress condition” value was determined as 13%+/−3%.

Take `C=C1CC[C@H](O)C/C1=C/C=C1\CCC[C@]2(C)[C@@H]([C@H](C)CCCC(C)C)CC[C@@H]12` [Vitamin D3, cholecalciferol]: in experiment [2], the “effect on survival under Paraquat-induced oxidative stress (words)” value is listed as “no beneficial effect; also recorded: no effect on survival”.
